Values joined by “and” are separate entries in the source; they are usually repeats but may differ in a detail not shown here. Equal entries are not always repeated. Where two headings read alike, the source gives them in different places.
Experiments:
[1] = Particle size, polydispersity and zeta potential with different cargoes (Zetasizer NANO ZS P); assay type: physicochemical; conditions: 20:1
Procedure: The CPP/CAS9-protein, CPP/CAS9-protein/sgRNA, CPP/CAS9-mRNA, CPP/CAS-mRNA/sgRNA particles were characterized; the mean size, polydispersity, and zeta potential were measured with a Zetasizer NANO ZS P apparatus (Malvern Ltd).
The mean size and the polydispersity of the CCP/cargo complexes were determined at 25° C. for 5 min per measurement and zeta potential was measured with a Zetasizer NANO ZS P apparatus (Malvern Ltd).

[2] = system: HPRT gene in mouse muscle myoblast cells (C2C12); test: HPRT gene editing in C2C12 myoblasts (T7E1 assay); assay type: cell-based
Procedure: […] Delivery by RNAiMAX was included as a positive control.
CAS9-induced NHEJ was analyzed 72 hours after transfection by PCR (FIG. 26) and T7E1 assay (FIG. 27). The deletion (indel) frequencies in the HPRT gene were quantified using a T7E1 assay by quantifying the amount of uncut vs cut DNA using a Fragment Analyzer System. Data for on-target mutations induced by RGEN/gRNA are reported as an average of 3 separate experiments
The cell line was maintained in 5% CO2 at 37° C. and cell viability was assessed by the Trypan Blue exclusion test. To induce myogenic differentiation, at about 80% cell confluence the medium containing 10% fetal calf serum was substituted with medium containing 1% fetal calf serum. The cells were transfected at the undifferentiated stage or at day 7 after differentiation.

U2OS cells = conditions: CAS9 mRNA 0.2 μg and 0.5 μg; 20:1; 72 h
Procedure: U2OS cells were cultured in Dulbecco's Modified Eagle's Medium (DMEM), supplemented with 2 mM glutamine, 1% antibiotics (streptomycin 10,000 μg/mL, penicillin, 10,000 IU/mL) and 10% (w/v) foetal calf serum (FCS), at 37° C. in a humidified atmosphere containing 5% CO2. […] After 20 min incubation at 37° C., 1 mL of fresh DMEM containing 16% FCS was added in order to reach a final FCS concentration of 10%, without removing the overlay of complexes. Cells were returned to the incubator for 72 hours. CAS9 expression level was quantified by western blot on protein extract using antibody against CRISPR/Cas9 (Diagenode cat. No. C15200223).

[3] = system: endogenous EMX1 and exogenous EGFP reporter genes in GFP-U2OS, EGFP-JURKAT cells; test: Delivery of multiple RGEN/gRNA complexes: EMX1 and EGFP editing; assay type: cell-based, human
Procedure: RNAiMAX delivery was used as positive control. Cells were treated as described previously and CAS9-induced NHEJ analyzed 72 hr after transfection. […] The deletion (indel) frequency in the EMX1 gene was quantified using the T7E1 assay and loss of EGFP expression was monitored by flow cytometry. Data for on-target mutations induced by RGEN/gRNA are reported as an average of 3 separate experiments.

[4] = system: primary human fibroblasts and primary human hepatocytes; test: Toxicity of ADGN-100a/CAS9/gRNA in primary cells (MTT assay); assay type: cell-based; conditions: both primary cell types
Procedure: Cytotoxic response was measured 24 hours later by colorimetric MTT assay (Sigma, Germany). For MTT assay, cell culture medium was removed and replaced with PBS containing 2.5 mg/ml of MTT for 4 hours.

[5] = system: endogenous EMX1, AAVS and HPRT genes in Mouse (ESF-158) embryonic stem cells; test: Delivery of multiple RGEN:gRNA complexes: EMX1, AAVS, HPRT editing in mouse ES cells (T7E1); assay type: cell-based
Procedure: RNAiMAX delivery method was used as a positive control.
U2OS cells were treated as described previously. H9 embryonic stem cells were cultured in Dulbecco's modified Eagle's medium with 4 mM L-glutamine adjusted to contain 1.5 g/L sodium bicarbonate and 4.5 g/L glucose and supplemented with 0.1 mM 2-mercaptoethanol, 85%; and 15% ES-Cell Qualified fetal bovine serum. […] CAS9-induced double-strand break formation followed by repair through NHEJ was analyzed 72 hr after transfection by T7E1 assay and quantified using Fragment Analyzer System. The deletion (indel) frequencies in EMX1, AAVS and HPRT genes were quantified using T7E1 assay. Data for on-target mutations induced by RGEN:gRNA are reported as an average of 3 separate experiments.

[6] = system: endogenous EMX1 and HPRT genes in primary human cardiac fibroblasts and primary human hepatocytes; test: EMX1 and HPRT editing in primary human cells (T7E1 assay); assay type: cell-based; conditions: for mean indel frequencies: both genes
Procedure: ADGN-100 peptides were also evaluated for cellular delivery of multiple RGEN:gRNA complexes targeting endogenous EMX1 and HPRT genes in primary human cardiac fibroblasts and primary human hepatocytes. The CAS9/gRNA complexes contained either CAS9 protein or mRNA encoding the CAS9 protein and a gRNA targeting either EMX1 or HPRT. Human primary cardiac fibroblasts and human primary hepatocytes were freshly obtained and grown in flasks pre-coated with a gelatin-based coating solution and incubated in Culture Complete Growth Medium for 3 days before expansion and treatment. […] Non-Homologous End Joining (NHEJ) was analyzed 72 hours after transfection by the T7E1 assay and compared to delivery using RNAiMAX lipid methods. The toxicity was analyzed for all conditions using the MTT assay.
CAS9 protein was preloaded with purified gRNA-GFP at a molar ratio of 1:1 and incubated for 10 min prior to forming complexes with ADGN peptides.
The following protocol was used for both cell types. Cells were cultured to about 70% confluence at the time of transfection. Cells were maintained in high glucose DMEM media with 10% serum. Before transfection, cells were washed with DMEM twice and resuspended in 0.2 ml of complex solution (16 μl complex+184 μl OPTiMEM) mixed gently and incubated for 10 min at 37° C. 0.8 mL of fresh OPTiMEM (high glucose) was added and cells were incubated for 20 min at 37° C. […] Cells were returned to the incubator at 37° C. and assayed at 72 hours post transfection.
As a positive control, complexes were delivered using RNAiMAX (Invitrogen Thermo Fisher). CAS9-induced double-strand break formation followed by repair throughout the non-homologous end joining (NHEJ) system was analyzed at 72 hours by the T7E1 assay and quantified using a Fragment Analyzer System. The indel frequencies reported for the EMX1 and HPRT genes are an average of 3 separate experiments. Cytotoxicity was analyzed using the MTT assay.

[7] = system: endogenous EMX1 gene in U2OS, JURKAT and K562 cells; test: EMX1 gene editing from CPP delivery of CAS9/gRNA (T7E1 assay); assay type: cell-based, human
Procedure: RNAiMAX delivery was used as a positive control as it was previously reported to show better results than Lipofectamine 2000 (Zuris et al., 2015, supra). […] Cells were returned to the incubator for 72 hours.

[8] = system: hPD1 gene in human T cells; test: hPD1 gene editing in primary human T cells (T7E1 assay); assay type: cell-based
Procedure: T cells were isolated from PBMCs (2 different donors) using anti-CD3/anti-CD28 antibodies bound to paramagnetic beads (Dynabeads ClinExVivo CD3/CD28, Invitrogen) at a ratio of 3:1 (beads:cells). The cells and beads were co-incubated for 2 hours at room temperature and CD3′ cell enrichment was performed using Dynal ClinExVIVO MPC magnet (Thermo Fisher). The anti-CD3/anti-CD28 paramagnetic beads were removed, washed and concentrated. Cells in the CD3′ fraction were resuspended in activation media at a concentration of 1×10^6 cells/ml with AIM-V medium (Thermo Fishers) supplemented with 10% fetal calf serum, 300 IU/ml IL2 and 50 ng/ml OKT3 (MuromonAB-CD3) for two days.
Cells were transfected by electroporation with CD-19 plasmid or gRNA/CAS9 (5 μg/10 μg) using a Nucleofector 2b (Lonza, Germany) with the Amaxa Human T cells Nucleofector Kit, VPA-1002 (Lonza, Germany). 5×10^6 cells were washed twice with DPBS by centrifuging at 800 rpm for 5 minutes and resuspended in 100 ^l transfection buffer, and then transferred into the electroporation cuvette. An optimized program selected for both high transfection and high efficiency on T cells was used. After electroporation, cells were resuspended in 500 ^l pre-warmed AIM-V medium containing 10% FBS and incubated at 37° C. in 5% CO2. The transfection efficiency was evaluated after 48 hr by flow cytometry or T7E1 assay.
As control, CAS9 loaded with gRNA targeting GFP was used.
Cells were returned to the incubator for 72 hours. CAS9-induced double-strand break followed by repair through non-homologous end joining (NHEJ) was analyzed by either the T7E1 assay or using the Genome Cleavage Detection kit (GCD Thermo Fisher) and quantified using Fragment Analyzer System. The indel frequency in the target gene was quantified using the T7E1 assay. The cultures were expanded and analyzed for viability and PD1 levels every 10 days. T cell expansion medium contained AIM V medium, supplemented with 5% heat-inactivated human AB Serum, 1% Gluta-Max, and 300 IU/mL IL-2.

[9] = system: endogenous EMX1 gene in U2OS, HEPG2, K562 cells and primary human fibroblasts; test: EMX1 editing from CPP delivery of CAS9 mRNA/gRNA (T7E1); assay type: cell-based
Procedure: CPP/CAS9 mRNA/gRNA complexes were formed by mixing the CAS9 mRNA (0.5 μg) and gRNA (5 μg) with CPP at a 20:1 molar ratio of CPP:cargo and incubating for 30 min at 37° C. prior to cell transfection. Suspension and adherent cells were transfected according to the protocols described in Example 13a. RNAiMAX-mediated delivery (Invitrogen Thermo Fisher France) was used as a control. EMX1 gene editing was analyzed at day 3 and day 6 by T7E1 assay and quantified using a Fragment Analyzer System.

[10] = system: endogenous EMX1 gene in U2OS, HEPG2 cells and primary human fibroblasts; test: EMX1 editing from CPP delivery of CAS9-expressing plasmid and gRNA (T7E1); assay type: cell-based; conditions: the three cell types
Procedure: EMX1-targeting gRNAs were prepared as described above. CPP/plasmid/gRNA complexes were prepared by mixing 0.5 μg of a CAS9-expressing plasmid (Addgene MLM3639-Plasmid #42252) and 5 μg gRNA with CPP at a 20:1 molar ratio of CPP to nucleic acid (plasmid+gRNA) and incubating for 30 min at 37° C. prior to cell transfection. Suspension and adherent cells were transfected according to the protocols described in Example 13a. Lipofectamine 2000- and RNAiMAX-mediated delivery methods (Invitrogen Thermo Fisher France) were used as controls. EMX1 gene editing was analyzed at day 3 and day 6 by T7E1 assay and quantified using a Fragment Analyzer System.

[11] = system: EGFP reporter gene in EGFP-U2OS cells
Procedure: ADGN-100 was evaluated for cellular delivery of a plasmid encoding CAS9 and gRNA targeting a specific site in the exogenous EGFP gene reporter in U2OS cells (EGFP-U2OS).
Stock solutions of amphipathic peptides were prepared at 1 mg/mL in distilled water and sonicated for 10 min.
EGFP-U2OS cells containing a single integrated EGFP reporter gene were cultured in Dulbecco's Modified Eagle's Medium (DMEM), supplemented with 2 mM glutamine, 1% antibiotics (streptomycin 10,000 μg/mL, penicillin, 10,000 IU/mL) and 10% (w/v) foetal calf serum (FCS), at 37° C. in a humidified atmosphere containing 5% CO2. A total of 150,000 cells seeded in a 35 mm dish the day prior to transfection were grown to 50-60% confluence and overlaid with 200 μl of preformed complexes, incubated for 3-5 min, then 400 μl of DMEM was added. After 30 min incubation at 37° C., 1 mL of fresh DMEM containing 16% FCS was added to reach a final FCS concentration of 10%, without removing the overlay of CPP/CAS9-gRNA complexes. Cells were returned to the incubator for 72 hours.
CAS9-induced double-strand break formation was analyzed using flow cytometry by monitoring the level of EGFP expression. […] Lipofectamine 2000 delivery was used as positive control.

CC(C)C[C@H](NC(=O)[C@H](CCCNC(=N)N)NC(=O)[C@H](Cc1c[nH]c2ccccc12)NC(=O)[C@H](CCCNC(=N)N)NC(=O)[C@H](Cc1c[nH]c2ccccc12)NC(=O)CNC(=O)[C@H](C)NC(=O)[C@H](CO)NC(=O)[C@H](CCCNC(=N)N)NC(=O)[C@H](Cc1c[nH]c2ccccc12)NC(=O)[C@H](CCCCN)NC(=O)CCN)C(=O)N[C@@H](Cc1c[nH]c2ccccc12)C(=O)N[C@@H](CCCNC(=N)N)C(=O)N[C@H](C(=O)N[C@@H](CCCNC(=N)N)C(=O)N[C@@H](CO)C(=O)N[C@@H](Cc1c[nH]c2ccccc12)C(=O)N[C@@H](CO)C(=O)N[C@@H](CCCNC(=N)N)C(=O)O)C(C)C [ADGN-100a]
formation of stable nanoparticles ([1]; with CAS9-mRNA and CAS9-mRNA/gRNA complex): able to form stable nanoparticles
Mean diameter ([1]; with CAS9-mRNA and CAS9-mRNA/gRNA): about 75 nm
formation of stable nanoparticles ([1]; with CAS9-protein and CAS9-protein/gRNA complex): able to form stable nanoparticles
Mean diameter ([1]; with CAS9-protein and CAS9-protein/gRNA): about 100 nm
mean indel frequency ([2]; differentiated C2C12): 47%
mean indel frequency ([2]; undifferentiated C2C12, 5 μg/10 μg CAS9/gRNA, 20:1): 79%
CAS9 protein expression (U2OS cells): dose-dependent expression of CAS9 protein
Mean indel Frequency ± S.E.M ([3]; JURKAT, EGFP): 78 ± 4%
Mean indel Frequency ± S.E.M ([3]; JURKAT, EMX1): 76 ± 7%
Mean indel Frequency ± S.E.M ([3]; U2OS, EGFP, 25 nM each complex): 77 ± 6%
Mean indel Frequency ± S.E.M ([3]; U2OS, EMX1): 72 ± 8%
toxicity [4]: less than 10%
Mean indel Frequency ± S.E.M ([5]; AAVS): 71 ± 5%
Mean indel Frequency ± S.E.M ([5]; EMX1): 75 ± 5%
Mean indel Frequency ± S.E.M ([5]; HPRT): 70 ± 4%
more potent than RNAiMAX [6]: 3-4 folds
Mean indel Frequency ± S.E.M ([6]; EMX1, Fibroblasts, 20 nM): 65 ± 4%
Mean indel Frequency ± S.E.M ([6]; EMX1, Fibroblasts, 50 nM): 67 ± 5%
Mean indel Frequency ± S.E.M ([6]; EMX1, Fibroblasts, CAS9/sgRNA 10 nM): 61 ± 5%
Mean indel Frequency ± S.E.M ([6]; EMX1, Hepatocytes, 10 nM): 55 ± 6%
Mean indel Frequency ± S.E.M ([6]; EMX1, Hepatocytes, 20 nM): 58 ± 5%
Mean indel Frequency ± S.E.M ([6]; EMX1, Hepatocytes, 50 nM): 61 ± 5%
Mean indel Frequency ± S.E.M ([6]; HPRT (printed HPR/HPRI), Fibroblasts, 10 nM): 62 ± 5%
Mean indel Frequency ± S.E.M ([6]; HPRT, Fibroblasts, 20 nM): 68 ± 4%
Mean indel Frequency ± S.E.M ([6]; HPRT, Fibroblasts, 50 nM): 70 ± 5%
Mean indel Frequency ± S.E.M ([6]; HPRT, Hepatocytes, 10 nM): 54 ± 6%
Mean indel Frequency ± S.E.M ([6]; HPRT, Hepatocytes, 20 nM): 56 ± 5%
Mean indel Frequency ± S.E.M ([6]; HPRT, Hepatocytes, 50 nM): 57 ± 5%
mean indel frequencies ([6]; primary fibroblasts, 20 nM): more than 60%
mean indel frequencies ([6]; primary hepatocytes, 20 nM): > 55%
Mean indel Frequency ± S.E.M ([7]; JURICAT, CAS9/sgRNA 25 nM): 65% and 65 ± 5%
Mean indel Frequency ± S.E.M ([7]; JURKAT, CAS9/sgRNA 50 nM): 68 ± 6%
Mean indel Frequency ± S.E.M ([7]; K562, CAS9/sgRNA 25 nM): 71% and 71 ± 8%
Mean indel Frequency ± S.E.M ([7]; K562, CAS9/sgRNA 50 nM): 74 ± 4%
Mean indel Frequency ± S.E.M ([7]; U2OS, CAS9/sgRNA 25 nM, 20:1): 67% and 67 ± 5%
Mean indel Frequency ± S.E.M ([7]; U2OS, CAS9/sgRNA 50 nM): 72 ± 8%
Mean indel Frequency ± s.e.m ([8]; Donor 1, CAS9/sgRNA 2.5 μg/5 μg): 48 ± 6%
Mean indel Frequency ± s.e.m ([8]; Donor 1, CAS9/sgRNA 5 μg/10 μg): 56 ± 4%
Mean indel Frequency ± s.e.m ([8]; Donor 2, CAS9/sgRNA 2.5 μg/5 μg): 52 ± 5%
Mean indel Frequency ± s.e.m ([8]; Donor 2, CAS9/sgRNA 5 μg/10 μg): 61 ± 8%
mean indel frequency of hPD1 gene ([8]; T cells from the two donors, 5 μg/10 μg CAS9/gRNA): 58%
mean indel frequencies [9]: about 60%
mean indel frequencies [10]: 45-50%
decrease in EGFP expression ([11]; molar ratio 10:1 of ADGN-100a to each nucleic acid): 23%
decrease in EGFP expression ([11]; molar ratio 20:1): 38%

From patent publication US20190211317A1, “PEPTIDES AND NANOPARTICLES FOR INTRACELLULAR DELIVERY OF GENOME-EDITING MOLECULES” (Aadigen, LLC, priority 2016, published 2019)
